One data set addresses LC3B (Homo sapiens, UniProt Q9GZQ8). The experiment in a line: MST detection of affinity activity with LC3B. In kind it is binding. Also on record: His8 (with TEV site) (N); made in house; host or cells: Escherichia coli BL21(DE3)pLysS. The procedure:
The recombinant GST-LC3B proteins were prepared and purified, dialyzed into 1×PBS, and then labelled with the red fluorophore with the protein labeling kit RED-NHS (Nanotemper, cat. no. L001).
The MST experiments were performed using the Monolith NT.115 instrument (NanoTemper Technologies). The reaction buffer contains 20 mM HEPES, pH 7.4, 150 mM NaCl, and the protein concentration was 500 nM. The MST data were collected under 40% infrared laser power and 20% light-emitting diode power. The data were analyzed by Nanotemper software.

Data set [1] relates to lipid droplets in wild type MEF cells. The experiment in a line: Reduction of OA-induced lipid droplets in wild type MEF cells (BODIPY 493/503 staining). In kind it is cell-based, mouse. As to conditions: MEF, unconjugated compound 5 μM. Here is the method: (5) OA-BSA stock solution was prepared into OA-BSA working solution (50× final concentration, 200 μM), and 40 μl of OA-BSA working solution was added to each well to induce lipid droplets. For the non-OA induction group, 40 μl of 10% BSA solution was added to the control well, and the amount of BSA was the same as that of the experimental group.
Compounds were formulated into DMSO stock solutions. Stock compounds were diluted with DMSO into the indicated concentrations of working solutions prior to use in the treatment of cells. After induction of the lipid droplets with OA for the indicated time, the test compounds were added to the cells respectively. Control wells were replaced with the equal volume of DMSO. Unless otherwise stated, the compounds were diluted into 10× solutions using the culture medium and added to the culture medium for 24 hours of incubation. Cells were treated with compounds in a 37° C. incubator with 5% CO2.
(3) The original medium in the multi-well plates was removed, washed and the cells was fixed, 1 ml of the BODIPY solution prepared in (1) was added to each well, and stained for 15 minutes. The staining solution was aspirated and washed with 1×PBS.
(5) The coverslips laid in the multi-well plates were removed, and imaged with the Zeiss 880 confocal microscope after mounted, and analyzed the size and number of lipid droplets with ImageJ.
Wild type MEF cells were cultured in a DMEM culture medium containing 10% FBS. Cells were plated according to the method as described above (12 well plate was plated with aseptic treated slides). When cells grew to a confluence of 60-70%, lipid droplets were induced with OA for 30 h according to the method as described above.
At the time point of 6th hour after initiation of induction, the cells were treated (treated for 24 hours) with Compound 1A or Compound 2A (compound concentrations were 50 μM, 15.8 μM, 5 μM, 1.58 μM, 0.5 μM, 0.158 μM) according to the method as described above.

The subject of data set [2] is lipid droplets in SH-SY5Y cells. The experiment in a line: Reduction of OA-induced lipid droplets in SH-SY5Y cells. The following applies: unconjugated compound 5 μM. In kind it is cell-based, human. The source says:
The reduction of lipid droplets in SH-SY5Y cells by Compound 1A and Compound 2A was detected by a method that was similar to Example 2, and the result was shown in FIG. 18.
The effects of unconjugated LC3 binding Compound A1, A5 and unconjugated lipid droplet probe ORBB […] respectively on lipid droplets in SH-SY5Y cells (FIG. 20A) and MEF cells (FIG. 20B) were detected by a method similar to Example 2.

The test system of data set [3] is lipid droplets in 3T3-L1 fat precursor cell differentiated fat cells. Nature of the data set: Lipid droplets in 3T3-L1 fat precursor cell differentiated fat cells. As to conditions: 3T3-L1 differentiated fat cells, 5 μM, 24 h. In kind it is cell-based, mouse.
Data set [4] relates to lipid droplets in human normal liver cell line QSG7701. The experiment in a line: Endogenous lipid droplets in human normal liver cell line QSG7701. Format: cell-based. The following applies: QSG7701, no induction, 5 μM, 24 h. Here is the method:
10% FBS+90% RPMI 1640 culture medium was used for cultivation, cell incubator culture condition of 37° C. and 5% CO2 was used. Cells were plated as 50 thousands/well (12 well plate was plated with aseptic treated slides). When cells grew to a confluence of 80-90%, the compound (Compound 1A or Compound 2A, at a concentration of 5 μM) was added for treatment, and LC3 binding Compound A1, A5, lipid droplet probe Sudan IV as well as DMSO acted as a control. […]. In the compounds of present disclosure, LC3 binding moiety was covalently linked with lipid droplet binding moiety, and thus could achieve the effect of reducing liver cell endogenous lipid droplet.

A further data set has as its system db/db mice. Nature of the data set: Effect of the compound on db/db mouse. In kind it is in vivo. The text has this:
Experimental animals: nineteen-week-old db/db male mice (C57BL/6J-Lepr^db/Lepr^db) were obtained from Shanghai Model Organisms Co., Ltd., and acclimatized for at least 1 week before experiments. The mice had ad libitum access to standard chow and water.
Normal control: The C57BL/6 male mice fed on standard irradiated chow diet (Shuyishuer Inc. cat. no. D12450J) from Changzhou Shuyishuer Biotechnology Co., Ltd. (Shuyishuer Inc.) were used as the normal control.
Mice were randomly divided into 7 groups, wherein 8 mice in each group, and the mice in each group were subjected to intraperitoneal injection to administer: (1) only vehicle (no DMSO) group: 0% DMSO+39% PEG300 (Selleck, cat. no. S6704)+5% Tween-80 (Selleck, cat. no. S6702)+56% distilled water, (2) DMSO group: 1% DMSO+39% PEG300+5% Tween-80+55% H2O (DMSO vehicle), (3) C3 group: Compound 3A was in DMSO vehicle, (4) C4 group: Compound 4A in DMSO vehicle, (5) SIII group: Sudan III DMSO vehicle, (6) GW5074 group: Compound A1 in DMSO vehicle, (7) DP group: Compound A5 in DMSO vehicle. For groups (3)-(7), the compound (30 mg/kg, administration volume 150 μL) was administered through intraperitoneally injection for consecutive 2 weeks, and once a day. The food and water intake were measured with an analytical electronic balance.
Bodyweight was weighed every day.
If time permitted, tail vein blood (30-50 μL) was collected every 1-3 days.
24 hours after the time point of the last injection, end point maxillary surface blood sampling was performed on each mouse. All mice were Euthanized by cervical dislocation, and then tissue sample (e.g., liver samples) were obtained and stored in Eppendorf tubes at −80° C. for assay.
12 days after initiation of administration, each mouse was scanned by a minispec nuclear magnetic resonance (NMR) instrument (Bruker LF50 II “Minispec” body composition analyzer, Bruker Optics) that was designed for experimental animals, and based on the measurement of solid and liquid parts of the samples, the body fat and lean body weight were determined by this device.
Serum: Tail vein blood samples (30-50 μL) were left to coagulate in […] blood collection tubes (Jiangsu Kangjian Medical Products Co., Ltd., model KJ002) at room temperature without interference, and then centrifuged at 2,000×g for 10 minutes at 4° C. to remove the clot. Supernatant was collected to obtain the serum.
Liver: Liver samples were obtained as described in (2). 100 mg of liver tissue was homogenized in 0.9 mL of absolute alcohol under ice-cold conditions, and then centrifuged (2,500 r.p.m/min, 10 min). Supernatant was collected, and then stored at −80° C.
The kits were used according to the instruction from manufacturer (TAG: TG kit, cat. no. A110-1-1; TC: T-CHO kit, cat. no. A111-1. FFA: NEFA kit, cat. No. A042-2-1; they were all from Nanjing Jiancheng Bioengineering Institute). TAG, TC and FFA levels in serum and liver samples were determined.
According to the lipidomic method as described above, the contents of liver total lipid, glycerolipid, sterol lipid, neutral sphingolipid and polar lipid were analyzed. The log 2-fold change (log2 FC) and statistical significance (p-value) relative to the DMSO group were calculated.

The subject of data set [5] is autophagosome-lipid droplet colocalization in MEF cells. Nature of the data set: Colocalization of autophagosome and lipid droplets in mCherry-LC3B transfected MEF cells. In kind it is cell-based, mouse. As to conditions: 5 μM, 3 h, compared to DMSO control. Here is the method:
(1) In MEF cells, mCherry-LC3B was expressed by cDNA plasmid transfection.
(2) OA was added to the culture medium 30 hours after transfection to induce lipid droplets.
(3) Compounds were added to treat cells 6 hours after induction.
(4) 3 hours after compounds addition, cells were fixed and BODIPY stained.
(5) The coverslips laid in the multi-well plates were removed, and imaged with the Zeiss 880 confocal microscope after mounted to observe the aggregation of LC3 puncta around the lipid droplets.
In MEF cells, mCherry-LC3B was expressed by cDNA plasmid transfection. At 30th hour of overexpression, OA was added into cells for lipid droplet induction. 6 hours later, the compound was added for 3 hours' treatment, and then cells were subjected to immunostaining. […] Lipid droplets (green) were stained with BODIPY stain, and nucleus were indicated with DAPI stain. […] In FIG. 24, the colocalized autophagosome-lipid droplet was marked with circles.

Setting [6] is: MST, read-out: Kd, equilibrium dissociation constant between the LC3 binding compound and LC3B.

Where two headings read alike, the source gives them in different places.

`O=C(O)c1cc2ccc(O)cc2oc1=O` [Compound A4]: the Kd (usually the equilibrium constant for the complex coming apart) on LC3B (setting [6]) stood at 3 µM.
In the case of `O=c1cc(-c2ccccc2)c2c(O)cc(O)cc2o1` [Compound A5, 5,7-dihydroxy-4-phenyl-2H-coumarin, reference compound], the “lipid droplets (number and size)” value in data set [1] and in data set [2] was “did not significantly decrease or become smaller” in each case. Further, the “amount/size of lipid droplets” value in data set [3] was “no significant effect”. Further, in data set [4], the “endogenous lipid droplets (amount)” value is “no significant effect”. For the same compound, the “mice died in the experiment” value with db/db mice (30 mg/kg ip, 8 mice per group) is on record as “one mouse”.
For `COc1ccc(-c2cc(=O)oc3c(C)c(O)c(CN(C)C)cc23)cc1` [Compound A7], the Kd on LC3B (setting [6]) is 0.672 µM.
As for `Cc1ccc(C(=O)N(CCCN)[C@@H](c2nc3cc(Cl)ccc3c(=O)n2Cc2ccccc2)C(C)C)cc1` [Compound A8, ispinesib], at LC3B, the Kd was 0.462 ± 0.11 µM.
`Nc1ncnc2c1c(-c1cccc(OCc3ccccc3)c1)cn2C1CC(CN2CCCC2)C1` (centres unmarked) [Compound A10]: the Kd on LC3B (setting [6]) came out at 3.98 ± 0.537 µM.
Regarding `COCC(=O)NC/C=C/c1ccc2ncnc(Nc3ccc(Oc4ccc(C)cc4)c(C)c3)c2c1` [Compound A11], the Kd on LC3B (setting [6]) was determined as 2.78 ± 0.577 µM.
For `CC(C)(C)c1cc(NC(=O)Nc2ccc(-c3cn4c(n3)sc3cc(OCCN5CCOCC5)ccc34)cc2)no1` [Compound A12], the Kd at LC3B (setting [6]) was 21.3 ± 1.69 µM.
Still for that read-out and setting: as for `Cc1csc(-c2nnc(Nc3ccc(Oc4ncccc4-c4ccnc(N)n4)cc3)c3ccccc23)c1` [Compound A13], the figure is 5.19 ± 0.282 µM.
In the case of `OCCCCCCCCCCBr` [Linker, 10-bromo-1-decanol, reference compound], the “amount/size of lipid droplets” value in data set [3] is “no significant effect”.
With `Oc1ccc2ccccc2c1/N=N/c1ccc(/N=N/c2ccccc2)cc1` [Sudan III, reference compound], in data set [3], the “amount/size of lipid droplets” value is “no significant effect”. Also, in the data set on db/db mice (lipidomics), the TAG in liver result is “not reduced”; the “other major neutral lipids, cholesteryl ester (ChE) and diglyceride (DG) in liver” value is given as “not reduced”. In addition, the “interaction with LC3B” value at LC3B (MST) was “No interaction”.
In the case of `Cc1ccccc1/N=N/c1ccc(/N=N/c2c(O)ccc3ccccc23)c(C)c1` [Sudan IV, reference compound], the “lipid droplets (number and size)” value in data set [1] and in data set [2] was “did not significantly decrease or become smaller” in each case. In data set [3], the “amount/size of lipid droplets” value was “no significant effect”. In data set [5], the “ratio of colocalization of red and green aggregation point (autophagosome-lipid droplet)” value is reported as “No such effect”. Besides, the “endogenous lipid droplets (amount)” value in data set [4] is reported as “no significant effect”. For the same compound, the “interaction with LC3B” value at LC3B (MST) is “No interaction”.

For the origin of these results see patent US12582720B2, “Compound for preventing or treating lipid metabolism-related diseases” (Fudan University, priority 2020, dated 2026).
